# Results published in patent US3941842A, “P,P'-Disubstituted α-trichloromethylbenzylanilines” (priority 1972, dated 1976).
# System: Anopheles albimanus larvae
# Assay: LC50 to Anopheles albimanus larvae
# Type: in vivo, Anopheles albimanus Weid
# Settings: not given
# Text: (§1) World Health Org. 363 (1971). […] Food Chem. 1145 (1970). […] Sci. Tech. 709 (1971). The results are detailed in Table II. ##SPC1##
row,Compound,LC50 Anopheles albimanus larvae [ppm]
1,COc1ccc(C(Nc2ccc(C)c(C)c2)C(Cl)(Cl)Cl)cc1 (stereo not drawn) [XXIII],0.18
2,Clc1ccc(NC(c2ccc(Cl)cc2)C(Cl)(Cl)Cl)cc1 (stereo not drawn) [Compound I],0.090
3,"CCOc1ccc(C(Nc2ccc(Cl)cc2)C(Cl)(Cl)Cl)cc1 (stereo not drawn) [VII, α-trichloromethyl1p-ethoxybenzyl-p-chloroaniline]",0.060
4,COc1ccc(C(Nc2ccc(C)cc2C)C(Cl)(Cl)Cl)cc1 (stereo not drawn) [XXIV],0.080
5,CCCCOc1ccc(C(Nc2ccc(OC)cc2)C(Cl)(Cl)Cl)cc1 (stereo not drawn) [XVIII],0.77

# System: Phormia regina
# Assay: whole plant or invertebrate
# Settings: Phormia regina, topical, read-out: Topical LD50, Phormia regina, Alone
# Procedure: The compounds of the present invention were tested for insecticidal activity by standard methods, and compared with the insecticidal activities of DDT and symmetrical analogs of DDT, such methoxychlor. Toxicological methods for the determination of the topical LD50 values to adult female SNAIDM and RSP houseflies, Musca domestica L. and to Phormia regina, and LC50 values to Culex pipiens quinquefasciatus Say, and Anopheles albimanus Weid mosquitoes were described by Metcalf el al., 44 Bull. World Health Org. […] The methods for evaluation of metabolism by mouse liver homogenate and by female RSP housefly and salt-marsh caterpillar larvae Estigmene acrea Drury, were described by Kapoor et al., 18 J. Agr. […] The techniques for model eocsystem evluation were described by Metcalf et al., 5 J. Environ. Sci. Tech.
# (§2) Since piperonyl butoxide serves to block the action of MFO, the synergized LD50 values express the intrinsic toxicity of the compounds. With the detoxifying action of MFO enzymes blocked, the intrinsic toxicity of the compounds can thus be measured.
row,Compound,LD50 [mg/kg]
1,COc1ccc(C(Nc2ccc(C)c(C)c2)C(Cl)(Cl)Cl)cc1 (stereo not drawn) [XXIII],77.5
2,Clc1ccc(NC(c2ccc(Cl)cc2)C(Cl)(Cl)Cl)cc1 (stereo not drawn) [Compound I],> 250
3,"CCOc1ccc(C(Nc2ccc(Cl)cc2)C(Cl)(Cl)Cl)cc1 (stereo not drawn) [VII, α-trichloromethyl1p-ethoxybenzyl-p-chloroaniline]",24.5
4,COc1ccc(C(Nc2ccc(C)cc2C)C(Cl)(Cl)Cl)cc1 (stereo not drawn) [XXIV],97.5
5,CCCCOc1ccc(C(Nc2ccc(OC)cc2)C(Cl)(Cl)Cl)cc1 (stereo not drawn) [XVIII],> 250

# Same assay, conditions: synergistic ratio: LD50 alone/LD50 synergized with piperonyl butoxide
row,Compound,"SR, Phormia regina"
1,Clc1ccc(NC(c2ccc(Cl)cc2)C(Cl)(Cl)Cl)cc1 (stereo not drawn) [Compound I],> 5.5

# Same assay, conditions: synergized with piperonyl butoxide; topical
row,Compound,"Topical LD50, Phormia regina, with pb [μg per g]"
1,COc1ccc(C(Nc2ccc(C)c(C)c2)C(Cl)(Cl)Cl)cc1 (stereo not drawn) [XXIII],15.5
2,Clc1ccc(NC(c2ccc(Cl)cc2)C(Cl)(Cl)Cl)cc1 (stereo not drawn) [Compound I],42.5
3,"CCOc1ccc(C(Nc2ccc(Cl)cc2)C(Cl)(Cl)Cl)cc1 (stereo not drawn) [VII, α-trichloromethyl1p-ethoxybenzyl-p-chloroaniline]",20.0
4,COc1ccc(C(Nc2ccc(C)cc2C)C(Cl)(Cl)Cl)cc1 (stereo not drawn) [XXIV],25.0
5,CCCCOc1ccc(C(Nc2ccc(OC)cc2)C(Cl)(Cl)Cl)cc1 (stereo not drawn) [XVIII],67.5

# System: Culex fatigans larvae
# Assay: LC50 to Culex fatigans larvae
# Type: in vivo, Culex pipiens quinquefasciatus Say
# Settings: not given
# Text: as §1
row,Compound,LC50 Culex fatigans larvae [ppm]
1,COc1ccc(C(Nc2ccc(C)c(C)c2)C(Cl)(Cl)Cl)cc1 (stereo not drawn) [XXIII],0.30
2,Clc1ccc(NC(c2ccc(Cl)cc2)C(Cl)(Cl)Cl)cc1 (stereo not drawn) [Compound I],0.026
3,"CCOc1ccc(C(Nc2ccc(Cl)cc2)C(Cl)(Cl)Cl)cc1 (stereo not drawn) [VII, α-trichloromethyl1p-ethoxybenzyl-p-chloroaniline]",0.032
4,COc1ccc(C(Nc2ccc(C)cc2C)C(Cl)(Cl)Cl)cc1 (stereo not drawn) [XXIV],0.28
5,CCCCOc1ccc(C(Nc2ccc(OC)cc2)C(Cl)(Cl)Cl)cc1 (stereo not drawn) [XVIII],0.60

# System: Musca domestica (SNAIDM and RSP strains), Phormia regina, Culex fatigans and Anopheles albimanus
# Assay: Insecticidal activity over the test insects (Table II, summarised in words)
# Type: in vivo
# Settings: adult insects
# Procedure: (§3) The compounds of the present invention were tested for insecticidal activity by standard methods, and compared with the insecticidal activities of DDT and symmetrical analogs of DDT, such methoxychlor. Toxicological methods for the determination of the topical LD50 values to adult female SNAIDM and RSP houseflies, Musca domestica L. and to Phormia regina, and LC50 values to Culex pipiens quinquefasciatus Say, and Anopheles albimanus Weid mosquitoes were described by Metcalf el al., 44 Bull. World Health Org. 363 (1971). The methods for evaluation of metabolism by mouse liver homogenate and by female RSP housefly and salt-marsh caterpillar larvae Estigmene acrea Drury, were described by Kapoor et al., 18 J. Agr. Food Chem. 1145 (1970). The techniques for model eocsystem evluation were described by Metcalf et al., 5 J. Environ. Sci. Tech. 709 (1971).
# as §2
row,Compound,toxicity to adult insects (in words)
1,Clc1ccc(NC(c2ccc(Cl)cc2)C(Cl)(Cl)Cl)cc1 (stereo not drawn) [Compound I],low toxicity to adult insects

# Same assay, conditions: mosquito larvae
row,Compound,larvicidal effectiveness (in words)
1,Clc1ccc(NC(c2ccc(Cl)cc2)C(Cl)(Cl)Cl)cc1 (stereo not drawn) [Compound I],very effective larvicide

# Same assay, conditions: overall, test insects of Table II
row,Compound,insecticidal effectiveness / toxicity (in words)
1,COc1ccc(C(Nc2ccc(C)c(C)c2)C(Cl)(Cl)Cl)cc1 (stereo not drawn) [XXIII],Toxicity was also substantially decreased
2,"CCOc1ccc(C(Nc2ccc(Cl)cc2)C(Cl)(Cl)Cl)cc1 (stereo not drawn) [VII, α-trichloromethyl1p-ethoxybenzyl-p-chloroaniline]",only slightly less active than compound XI
3,COc1ccc(C(Nc2ccc(C)cc2C)C(Cl)(Cl)Cl)cc1 (stereo not drawn) [XXIV],Toxicity was also substantially decreased
4,CCCCOc1ccc(C(Nc2ccc(OC)cc2)C(Cl)(Cl)Cl)cc1 (stereo not drawn) [XVIII],Toxicity was also substantially decreased

# System: Musca domestica Rsp
# Assay: Topical LD50 to adult female RSP houseflies
# Settings: Musca domestica, topical, read-out: Topical LD50, Musca domestica Rsp, Alone
# Procedure: as §3, §2
row,Compound,LD50 [mg/kg]
1,COc1ccc(C(Nc2ccc(C)c(C)c2)C(Cl)(Cl)Cl)cc1 (stereo not drawn) [XXIII],100
2,Clc1ccc(NC(c2ccc(Cl)cc2)C(Cl)(Cl)Cl)cc1 (stereo not drawn) [Compound I],220
3,"CCOc1ccc(C(Nc2ccc(Cl)cc2)C(Cl)(Cl)Cl)cc1 (stereo not drawn) [VII, α-trichloromethyl1p-ethoxybenzyl-p-chloroaniline]",31
4,COc1ccc(C(Nc2ccc(C)cc2C)C(Cl)(Cl)Cl)cc1 (stereo not drawn) [XXIV],140
5,CCCCOc1ccc(C(Nc2ccc(OC)cc2)C(Cl)(Cl)Cl)cc1 (stereo not drawn) [XVIII],230

# Same assay, conditions: RSP strain; synergized with piperonyl butoxide; topical
row,Compound,"Topical LD50, Musca domestica Rsp, with pb [μg per g]"
1,COc1ccc(C(Nc2ccc(C)c(C)c2)C(Cl)(Cl)Cl)cc1 (stereo not drawn) [XXIII],28.0
2,Clc1ccc(NC(c2ccc(Cl)cc2)C(Cl)(Cl)Cl)cc1 (stereo not drawn) [Compound I],25
3,"CCOc1ccc(C(Nc2ccc(Cl)cc2)C(Cl)(Cl)Cl)cc1 (stereo not drawn) [VII, α-trichloromethyl1p-ethoxybenzyl-p-chloroaniline]",13.5
4,COc1ccc(C(Nc2ccc(C)cc2C)C(Cl)(Cl)Cl)cc1 (stereo not drawn) [XXIV],29.0
5,CCCCOc1ccc(C(Nc2ccc(OC)cc2)C(Cl)(Cl)Cl)cc1 (stereo not drawn) [XVIII],32.0

# Same assay, conditions: synergistic ratio: LD50 alone/LD50 synergized with piperonyl butoxide
row,Compound,"SR, Musca domestica Rsp"
1,COc1ccc(C(Nc2ccc(C)c(C)c2)C(Cl)(Cl)Cl)cc1 (stereo not drawn) [XXIII],3.6
2,Clc1ccc(NC(c2ccc(Cl)cc2)C(Cl)(Cl)Cl)cc1 (stereo not drawn) [Compound I],8.8
3,"CCOc1ccc(C(Nc2ccc(Cl)cc2)C(Cl)(Cl)Cl)cc1 (stereo not drawn) [VII, α-trichloromethyl1p-ethoxybenzyl-p-chloroaniline]",2.3
4,COc1ccc(C(Nc2ccc(C)cc2C)C(Cl)(Cl)Cl)cc1 (stereo not drawn) [XXIV],4.8
5,CCCCOc1ccc(C(Nc2ccc(OC)cc2)C(Cl)(Cl)Cl)cc1 (stereo not drawn) [XVIII],7.2

# System: Musca domestica Snaidm
# Assay: Topical LD50 to adult female SNAIDM houseflies
# Settings: Musca domestica, topical, read-out: Topical LD50, Musca domestica Snaidm, Alone
# Procedure: as §3, §2
row,Compound,LD50 [mg/kg]
1,COc1ccc(C(Nc2ccc(C)c(C)c2)C(Cl)(Cl)Cl)cc1 (stereo not drawn) [XXIII],85
2,Clc1ccc(NC(c2ccc(Cl)cc2)C(Cl)(Cl)Cl)cc1 (stereo not drawn) [Compound I],115
3,"CCOc1ccc(C(Nc2ccc(Cl)cc2)C(Cl)(Cl)Cl)cc1 (stereo not drawn) [VII, α-trichloromethyl1p-ethoxybenzyl-p-chloroaniline]",19
4,COc1ccc(C(Nc2ccc(C)cc2C)C(Cl)(Cl)Cl)cc1 (stereo not drawn) [XXIV],95
5,CCCCOc1ccc(C(Nc2ccc(OC)cc2)C(Cl)(Cl)Cl)cc1 (stereo not drawn) [XVIII],370

# Same assay, conditions: SNAIDM strain; synergized with piperonyl butoxide; topical
row,Compound,"Topical LD50, Musca domestica Snaidm, with pb [μg per g]"
1,COc1ccc(C(Nc2ccc(C)c(C)c2)C(Cl)(Cl)Cl)cc1 (stereo not drawn) [XXIII],6.5
2,Clc1ccc(NC(c2ccc(Cl)cc2)C(Cl)(Cl)Cl)cc1 (stereo not drawn) [Compound I],13.5
3,"CCOc1ccc(C(Nc2ccc(Cl)cc2)C(Cl)(Cl)Cl)cc1 (stereo not drawn) [VII, α-trichloromethyl1p-ethoxybenzyl-p-chloroaniline]",10.5
4,COc1ccc(C(Nc2ccc(C)cc2C)C(Cl)(Cl)Cl)cc1 (stereo not drawn) [XXIV],14.0
5,CCCCOc1ccc(C(Nc2ccc(OC)cc2)C(Cl)(Cl)Cl)cc1 (stereo not drawn) [XVIII],12.5

# Same assay, conditions: synergistic ratio: LD50 alone/LD50 synergized with piperonyl butoxide
row,Compound,"SR, Musca domestica Snaidm"
1,COc1ccc(C(Nc2ccc(C)c(C)c2)C(Cl)(Cl)Cl)cc1 (stereo not drawn) [XXIII],13.0
2,Clc1ccc(NC(c2ccc(Cl)cc2)C(Cl)(Cl)Cl)cc1 (stereo not drawn) [Compound I],8.5
3,"CCOc1ccc(C(Nc2ccc(Cl)cc2)C(Cl)(Cl)Cl)cc1 (stereo not drawn) [VII, α-trichloromethyl1p-ethoxybenzyl-p-chloroaniline]",1.8
4,COc1ccc(C(Nc2ccc(C)cc2C)C(Cl)(Cl)Cl)cc1 (stereo not drawn) [XXIV],6.8
5,CCCCOc1ccc(C(Nc2ccc(OC)cc2)C(Cl)(Cl)Cl)cc1 (stereo not drawn) [XVIII],30
